Measured values taken from patent US12138300B2, “Methods and compositions for inducing neural plasticity” (CASE WESTERN RESERVE UNIVERSITY, priority 2018, dated 2024).

How the values were obtained:
stroke mice [1] = assay: DCX+ neuroblast formation in post-stroke mice; type: in vivo, mouse; conditions: post-stroke treatment; vs vehicle
WT primary NSCs = assay: Neural stem cell differentiation assay, neurite outgrowth (MAP2 immunostaining); type: cell-based, mouse; conditions: 2.5 μM peptide, differentiated in vitro for 5 days
Protocol: Briefly, glass coverslips in an untreated 24-well plate were coated with poly-ornithine and laminin After splitting neurospheres during passaging, individual cells were plated at a density of 10^4 cells/cm^2 in 500 μl of NBM-GF. Every other day, 250 μl of media was removed from each well and 300 μl of fresh NBM-GF was added. When the attached cell reached approximately 70% confluency (around day 5), all NBM-GF within each well was gently removed and immediately replaced with neurobasal media without growth factor (NBM) with ISP peptide (2.5 μM) or scramble peptide (2.5 μM). Each well was fed daily by removing 250 μl of the media and adding 300 μl of the media containing ISP or scramble peptide. On Day 5 after complete replacement of the NBM-GF, the wells were fixed with 4% paraformaldehyde for 15 min at room temperature and stored in phosphate-buffered saline at 4° C. until staining.
Cells cultured on coverslip were fixed in 4% PFA for 15 min, permeabilized in 0.1% Triton-X100 for 10 min and then incubated in 10% normal goat serum for 1 hour. […] Three coverslips were analyzed per condition. Random selections of field in each coverslip were chosen and imaged by Stereo Investigator Software (MBF Bioscience, Williston, VT, USA), and quantitative data was obtained by using NIH ImageJ software.

adult NSCs = assay: Migration of neural stem cells on CSPGs (aggrecan coating); type: cell-based, mouse; conditions: 2.5 μM peptide, 21 hours, with or without aggrecan coating
Excerpt: Primary stem cells were obtained from C57BL/6J mice at 5 weeks of age. After euthanization, whole brains were immediately harvested and dissected under microscope to obtain the subventricular zone (SVZ) tissue. After mechanical dissociation with a stab knife, the tissue fragment were processed using trypsin and resuspended as individual cells at a density of 10^4 cell/cm^2 in neurobasal media with growth factors (epidermal growth factor and basic fibroblast growth factor) (NBM-GF). Subsequent passaging of cells were performed using Accutase® (innovative #AT-104, CA, USA) every 7 days until the cells established viable lines, and cellular debris was naturally diminished after each passage. At day 4 of each passage, the proliferating spheres were fed with NBM-GF. We used neurospheres at passage P3-P8 in this study.
To determine the effects of CSPGs on the migration of neural stem cells in vitro, flat-bottom 48-well plates were first coated with poly-L-lysine overnight, followed by a rinsing with water. Aggrecan (A1960, sigma) were coated onto the 48-well plates at the concentration of 1 ug/ml and 10 ug/ml diluted in sterile water overnight, followed by a rinsing with water. The control wells contained poly-L-lysine alone. […] The inner area and total area of neurospheres were measured by ImageJ software. […]

stroke mice [2] = assay: Adhesive removal test (sensorimotor function) in stroke mice; type: in vivo, mouse; conditions: post-stroke treatment
Protocol: This test was performed on days 7, 14, 21, 28, 35 and 42 post-stroke in order to examine the sensorimotor deficits. Each mice was placed into transparent cylinder (15 cm diameter) during a habituation period of 1 min Thereafter, two different colored adhesive labels (2.5 mm diameter made by punch, Tough Spots) were applied with equal pressure on each mouse's forepaw. The times required to remove the adhesive labels were measured with a maximum of 2 min. To achieve an optimum level of performance, mice should be trained for 4 days before surgery.

stroke mice [3] = assay: Quantification of brain atrophy in stroke animals; type: in vivo, mouse; conditions: post-stroke 6-week brain sections
Protocol: The post-stroke 6-week brain sections (25 μm) were mounted on PLL-coated slides. The sections were rehydrated in KH2PO4 buffer (pH 4.5) for 10 min, and then stained in pre-warm 10% Giemsa solution for 30 min at 42° C. After a brief rinse with KH2PO4 buffer, sections were dehydrated in absolute ethanol, cleared in xylene and mounted with Histoseal. A set of serial sections was imaged by Path Scan Enabler IV slide scanner. Contralateral and ipsilateral brain areas were quantified using ImageJ software. The calculation formula of atrophy rate is as follows: Σ (contralateral brain area−ipsilateral brain area)/Σ contralateral brain area×100%.

stroke mice [4] = assay: Barnes maze test (cognitive function) in stroke mice; type: in vivo, mouse; conditions: 4 weeks after stroke; vs vehicle
Excerpt: The spatial memory of ischemic mice was examined using Barnes maze (Stoelting Company, WoodDale, IL, USA) 28 days after tMCAO. The maze consists of a 91.5 cm diameter circular platform with 20 holes around the perimeter. Mice were discouraged to idle around aimlessly by blowing fans and a bright light above the platform. At day 0, mice were gently guided to enter the target hole after removing the start chamber. At day 1, mice were trained for 4 trials in 2 sessions to find the escape tunnel placed under the target hole. Once mice entered the target hole, the hole was covered and mice were allowed to stay in it for 2 min. If mice could not locate the target hole within 5 min, mice were guided by the observer to enter the target hole. At day 2, one trial was run and video-taped until the mouse getting into the target hole or stopped at 5 mins when the mouse could not locate the target hole. Time spent to locate the escaping hole and error numbers in finding the hiding hole made by the mouse were measured by an observer in a blinded fashion.

stroke mice [5] = assay: Computer automated open field locomotion analysis in stroke mice; type: in vivo, mouse
Protocol: First, the efficacy of post-stroke ISP treatment in the C57BL/6 mouse was tested using a proximal middle cerebral artery occlusion (pMCAO) model. Three cohorts of mice (n=59) were subjected to MCAO surgery to induce a large stroke in both striatal and cortical tissue, mimicking a human “malignant” stroke, which tends to be fatal in humans. […]
To test the timing of ISP administration relative to the time of injury, and the corresponding effect on recovery, adult C57bl/6J female and male mice were subjected to transient proximal MCAO surgery (35 min) as described above. […]
Mice motor activities were assessed using Accuscan activity monitor (Columbus, OH, USA) one day before and 3, 7, 14, 21, 35 and 42 days after tMCAO as previously described. […] To avoid observer bias, this locomotor test was automatically monitored by the computer and software. Locomotor activity was calculated by automated Versamax software (Accuscan, Columbus, OH, USA). The following variables were measured: (A) horizontal activity (the total number of beam interruptions that occurred in the horizontal sensors); (B) total distance traveled (cm, the distance traveled by the animals); (C) Vertical activity (the total number of beam interruptions that occurred in vertical sensors).

stroke mice [6] = assay: Survival of stroke mice after tMCAO with post-stroke treatment; type: in vivo, mouse
Protocol: First, the efficacy of post-stroke ISP treatment in the C57BL/6 mouse was tested using a proximal middle cerebral artery occlusion (pMCAO) model. Three cohorts of mice (n=59) were subjected to MCAO surgery to induce a large stroke in both striatal and cortical tissue, mimicking a human “malignant” stroke, which tends to be fatal in humans. Stroke mice were subjected to T2 weighted MRI scanning to determine the size of the stroke injury and were grouped blindly into two equally distributed groups that received either daily vehicle (5% DMSO) or daily ISP (20 μg/mouse/day or 30 μg/mouse/day S.C. injections) treatment starting from 24 hours after stroke onset for 6 weeks.
Transient middle cerebra artery occlusion (tMCAO) was induced in male C57BL/6 mice (12 weeks old, 25-30 g) by intraluminal occlusion of the left MCA for 45 min with silicone rubber-coated monofilament (Cat. 602212PK10Re and 602312PK10Re, Doccol Corporation). Briefly, mice were anesthetized with isoflurance. Body temperature was monitored and maintained at 37±0.5° C. by homeothermic blanket control unit (Harvard apparatus). To minimize animal's pain, mice were subcutaneously injected with buprenorphine. […] To ensure consistent and successful blockage of MCA, regional cerebral blood flow was monitored in all stroke animals by Laser Doppler flowmetry (PeriFlux system 5000, Perimed, Sweden). […]

stroke mice [7] = assay: Anterograde BDA tracing and quantification of corticospinal tract axonal sprouting; type: in vivo, mouse; conditions: post-stroke treatment; crossed CST fibers at cervical spinal cord, BDA tracing
Protocol: Four weeks after tMCAO, mice were anesthetized with 1.5% isoflurane/oxygen mixture and stabilized in a stereotaxic frame. 1.5 μl of the biotin dextran amine (BDA, MW10,000; 10% in PBS, invitrogen) were injected at three sites in the contralesional cortex (coordinates: 1. A/P 0.0 mm, M/L −2 mm, D/V −1 mm; 2.A/P 0.5 mm, M/L-1.5 mm, D/V-1 mm; 3. A/P 0.5 mm, M/L −2 mm, D/V −1 mm) Two weeks later, brain and cervical spinal cord were harvested after cardiac perfusion with PBS followed by 4% paraformaldehyde. After post-fix overnight in 4% paraformaldehyde and cryoprotection in 20% and 30% sucrose, coronal brain sections and transverse spinal cord sections were cut at 30 μm thickness. For the detection of BDA, sections were rinsed in 0.1M PB and incubated in 0.3% H2O2 for 30 min to inactivate endogenous peroxidase, followed by incubation for 2 hours with a Vectastain® ABC kit (Vector Laboratories, Burlingame, CA, USA). Staining was developed with 2,3′ diaminobenziine tetrahydrochloride (0.5 mg/ml in 0.1M PB). The number and length of midline-cross BDA+ fiber were assessed in a blinded manner Sections were analyzed with ImageJ software.

Row | Sequence | DCX+ neuroblasts near the lateral ventricle and adjacent striatal tissues (stroke mice [1]) | neurite outgrowth (neurite length) in differentiated NSCs (WT primary NSCs) | migration of adult NSCs (normalized migration index) (adult NSCs) | speed of tape removal, affected limb (stroke mice [2]; affected front paw, vs vehicle) | tape removal, unaffected limb (stroke mice [2]; unaffected front paw) | chronic atrophy of brain after stroke (stroke mice [3]) | error trials to find the escape hole in the Barnes maze (stroke mice [4]) | time to find the escape hole in the Barnes maze (stroke mice [4]) | locomotor function (total distance travelled, total horizontal activity, total vertical activity) (stroke mice [5]; treatment from 24 h post-stroke, 2-4 weeks after stroke, vs vehicle) | open field locomotion performance (total distance, horizontal activity, vertical activity), delayed treatment (stroke mice [5]; treatment initiated 7 days post stroke, 1 mg/kg/day for 3 weeks, by week four) | survival of stroke animals over time (stroke mice [6]; continuous post-stroke treatment started 24 hours post-stroke, tMCAO mice, vehicle 44.828%) | survival rate of stroke animals (stroke mice [6]; treatment initiated at 24 hours post stroke, daily S.C., vs vehicle) | axonal sprouting from contralateral corticospinal tract (stroke mice [7])
1 | GRKKRRQRRRCDMAEHMERLKANDSLKLSQEYESI [ISP] | enhanced | consistently increased neurite outgrowth | alleviates the inhibition of CSPGs on NSCs migration | significantly improved the speed | without any obvious effects | decreases the chronic atrophy of brain | less error trials | significantly less time | significantly increased | significant effects in improved performance | 67.742% | improve the survival rate of stroke animals significantly | enhanced
2 | GRKKRRQRRRCIREDDSLMLYALAQEKKESNMHES [scrambled ISP peptide, reference compound] |  | no effects |  |  |  |  |  |  |  |  |  |  | 
